Measured values: patent publication US20240066018A1 (priority 2022, published 2024)

Columns and labels:
[1] = system: primary colon cancer samples from patients with high M3 receptor expression grown as organoids
[2] = patients with irritable bowel syndrome; cited from earlier work

c1ccc(C(O[C@@H]2CCCN(CCc3ccc4c(c3)OCO4)C2)c2ccccc2)cc1 [zamifenacin]
Organoid growth [1]: inhibited
Colonic motor activity [2]: reduce colonic motor activity
